# Assay results: patent US10149644B2, “Curcumin derivatives for amyloid-β plaque imaging” (The General Hospital Corporation, priority 2008, dated 2018)
# How the values were obtained:
# [1] = target: T1, Aβ40 aggregates (Homo sapiens, UniProt P05067); experiment: Fluorescence response of probe to Aβ40 aggregates, Aβ40 monomer and PBS; assay type: binding
# T1 construct: Synthetic amyloid-b protein (1-40) was purchased from rPeptide; purchased rPeptide (Bogart, Ga.)
# Excerpt: We compared the fluorescence intensity of CRANAD-2 with PBS (pH 7.4), Aβ40 peptide, and Aβ40 aggregates generated from Cu^2+ induced aggregation.
# [2] = Log P measurement (octanol/water); assay type: physicochemical
# Protocol: Log p measurement was performed according to the reported procedure {35}. CRANAD-2 (0.125 mM) in Octanol 2.0 mL was subjected to partition with octanol-saturated water 2.0 mL. The resulting mixture was stirred vigorously for 5 min., and centrifuged at 2,000 rpm for 5 min. The octanol layer was separated from water layer, and its fluorescence spectrum was recorded (excited at 590 nm). The above water layer was partitioned with water-saturated octanol 2.0 mL, and the octanol layer was separated after 5 min. vigorous stirring and 5 min. centrifuge at 2,000 rpm, and its spectrum was recorded. The log P value was calculated by the fluorescence intensity ratio at 690 nm for the above two octanol extractions.
# In order for the probe to cross blood brain barrier, its lipophilicity (log P) should be within 2-5 range.
# [3] = BBB penetration and blood/brain clearance; assay type: in vivo, Balb/c mice; conditions: 10 mg/kg i.v.
# Protocol: To test the BBB penetrating ability of the probe, Balb/c mice were used (n=3). […] Mice were perfused with saline solution and the brains were excised at 30 min., 1 h, 2 h, and 4 h after injection. Each brain sample was homogenized with 2.0 ml water and 3.0 ml ethyl acetate, and the homogenate was centrifuged for 5 min at 2,500 rpm. The fluorescence intensities of the ethyl acetate supernatant were recorded. The actual amounts (pmol) of the extracted probe were calculated according to the standard curve of CRANAD-2 in ethyl acetate.
# Prior to perfusion, blood samples were taken at each time point to monitor the probe blood clearance. The blood samples were diluted with PBS buffer to 1.0 mL, followed by ethyl acetate (2.0 mL) extraction. The extractions were subjected to fluorescence intensity measurement, and the actual amounts of the probe for each mouse were calculated as the procedure for brain extraction described above.
# In addition, to follow the probe clearance the inventors drew blood samples at each time point. […] LC-MS results also confirmed that the major component of the ethyl acetate extraction was CRANAD-2.
# [4] = system: Tg2576 mice; experiment: In vivo NIR imaging
# Protocol: In vivo NIR imaging was performed using Kodak Imaging station 2000MM. For fluorescence excitation, three laser diodes at 660 nm with a total power of 10 mW/cm2 have been used yielding a uniform illumination of the whole animal. The fluorescent light emitted from the sample (mouse) was detected by a charge-coupled device (CCD) camera (Hamamatsu ORCA) equipped with a focusing lens system (macro lens 60 mm, 1:2.8, Nikon). The image matrix comprised of 532×256 pixels. A bandpass filter was used for the selection of the detection wavelength (700 nm). Integration time default was selected at 30 s. Images were acquired Kodak 1DTM 3.6.3 Network software and analysed using the Kodak™ 1D Analysis software.
# Mice (n=3 for Tg2576 and n=3 for the littermates) were shaved before background imaging, and were i.v. injected CRANAD-2 (5.0 mg/kg) for each mouse. Fluorescence signals from the brain were recorded at pre-injection, and 10 min., 30 min., 60 min., 120 min., 240 min., and 480 min. after intravenous injection of the probe. To evaluate our imaging results, an ROI was drawn around the brain region, and the data were analyzed by the following modified equation (1) {24}, where Irel(t) is the relative fluorescence intensity at the certain time point, I(t) is the measured ROI value at this time point, I(pre) is the pre-injection background, and I(30) is the reading at 30 min. Since pre-injection background varied in different mice, this equation allowed us to correct for it. Fluorescence intensity decay curves were then generated based on this equation. Irel(t)=(I(t)−I(pre))/(I(30)−I(pre)) (1)
# For in vivo specific binding (SP), the calculation was based on equation (2), where Irel(tg) is the relative fluorescence intensity of Tg2576, and Irel(contr) is the relative fluorescence intensity of the control littermates. P values were calculated by Student test. SP(t)={Irel(tg)−Irel(contr)}/Irel(tg) (2) Ex Vivo Histological Correlation.
# Transgenic 11-month and 19-month old Tg2576 mice were used to validate the feasibility of CRANAD-2 as NIR imaging probe. Aged-matched wild type littermates served as controls. Images were recorded before and after i.v. injection of CRANAD-2 at 5.0 mg/Kg dosage. […] Furthermore, the signals from 19-month old Tg2576 (FIG. 11D) were remarkably brighter at all time points.
# Semi-quantitative analysis of these images was conducted with selected region of interested (ROI), and two sets of data were generated. By normalizing the fluorescence intensity to that of 30 min. after the injection of the probe, we were able to create four well-fit decay curves with non-linear regression for two binding site model (Prism 3.0) for both 11- and 19-months old groups (R2=0.96, 0.97, 0.97, and 0.94 for 11-month control, tg2576, and 19-month control and tg2576 respectively) (FIG. 9A). By normalizing the signal to background fluorescence intensity (Fpre), and using the ratio between fluorescence intensity at time points studied ((F(t)) and Fpre) we could compare the signal change in Tg2576 group to that of the control group (FIGS. 9B,C)(e.g. F(t)/Fpre). Details of these methods are described in Materials and Methods contained herein.
# [5] = system: Aβ plaques; experiment: AD tissue staining of APP-PS1 brain sections; conditions: 25 micron sections, 12-month old APP-PS1 mice
# Excerpt: The inventors conducted tissue staining with 25 micron brain sections from 12-month old APP-PS1 mice by all the compounds listed in FIG. 12.
# T1 sequence (P05067 672-711 limits assumed): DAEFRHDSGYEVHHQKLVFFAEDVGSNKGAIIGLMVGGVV
compound,measurement,setting,value
CN(C)c1ccc(/C=C/C2=CC(/C=C/c3ccc(N(C)C)cc3)=[O+][B-](F)(F)O2)cc1 [CRANAD-2],Fluorescence intensity with Aβ40 peptide monomer vs PBS,[1]; Aβ40 monomer,did not observe any significant difference
same,Quantum yield in PBS buffer,[1]; PBS buffer,0.6%
same,Quantum yield in PBS,"[1]; PBS, given as fraction",0.006
same,Quantum yield after binding to Aβ40 aggregates,"[1]; bound to Aβ40 aggregates, given as fraction",0.40
same,Quantum yield upon binding to aggregates,[1]; bound to aggregates,40%
same,Fluorescence intensity increase in the presence of Aβ40 aggregates,[1]; vs PBS,70 fold
same,logP,[2],3
same,Clearance from blood,[3],rapid clearance from blood
same,Clearance from the brain vs blood,[3],significantly slower
same,BBB penetrating ability,"[3]; brain homogenate, fluorescence, HPLC, LC-MS",capability to cross BBB
same,"Declining of brain fluorescence signals, Tg2576 vs control","[4]; 5.0 mg/kg i.v., 11- and 19-month old",considerably slower
same,"Difference in F(t)/Fpre, Tg2576 vs control","[4]; 11-month old, 120 min",0.52
same,"Difference in relative fluorescence decay Irel(t), Tg2576 vs control","[4]; 11-month old, 120 min, 5.0 mg/kg i.v.",23%
same,"Difference in F(t)/Fpre, Tg2576 vs control","[4]; 11-month old, 240 min",0.45
same,"Difference in relative fluorescence decay Irel(t), Tg2576 vs control","[4]; 11-month old, 240 min, 5.0 mg/kg i.v.",16%
same,"Difference in F(t)/Fpre, Tg2576 vs control","[4]; 19-month old, 120 min",0.43
same,"Difference in relative fluorescence decay Irel(t), Tg2576 vs control","[4]; 19-month old, 120 min, 5.0 mg/kg i.v.",20%
same,"Difference in F(t)/Fpre, Tg2576 vs control","[4]; 19-month old, 240 min",0.65
same,"Difference in relative fluorescence decay Irel(t), Tg2576 vs control","[4]; 19-month old, 240 min, 5.0 mg/kg i.v.",30%
same,"Fluorescence intensity, transgenic vs control groups","[4]; 30, 60, 120 and 240 min after injection",higher than that of the control groups
same,"Slower decay rate, 19-month vs 11-month old Tg2576",[4]; 120 min,11%
same,"""Smart"" amplification factor in vivo (ratio>1.0 = smart)","[4]; 120 min and 240 min, 11- and 19-month groups",“smart” probe in vivo
same,"Slower decay rate, 19-month vs 11-month old Tg2576",[4]; 240 min,13%
same,Staining of plaques in brain sections,[5],good staining
same,Staining of plaques in brain sections,[5]; listed as CRANAD2,stained the plaques brightly
